Source: ChEMBL document CHEMBL3611982, “Lowering the pKa of a bisimidazoline lead with halogen atoms results in improved activity and selectivity against Trypanosoma brucei in vitro” (Eur J Med Chem, 2015)
Active and inactive are the calls of the source. The rule behind the calls is not given here.

Experiments:
[1] = tested on: Trypanosoma brucei brucei; assay: Resistant factor, ratio of EC50 for diminazene/pentamidine/melaminophenyl arsenicals-resistant Trypanosoma brucei brucei B48 to EC50 for wild type bloodstream form of Trypanosoma brucei brucei s427 trypomastigotes; assay type: functional
[2] = Selectivity index, ratio of CC50 for HEK293T cells to EC50 for wild type bloodstream form of Trypanosoma brucei s427 trypomastigotes; assay type: toxicity, cell-based, HEK-293T; conditions: human, read-out: Ratio CC50/EC50
[3] = Cytotoxicity against HEK293T cells after 30 hrs by Alamar Blue assay; assay type: cell-based, HEK-293T; conditions: human
[4] = tested on: Trypanosoma brucei brucei; assay: Trypanocidal activity against Trypanosoma brucei brucei s427 measured within 6 hrs by propidium iodide staining-based fluorimetric analysis; assay type: functional, organism-based
[5] = tested on: Trypanosoma brucei brucei; assay: Trypanocidal activity against diminazene/pentamidine/melaminophenyl arsenicals-resistant bloodstream form of Trypanosoma brucei brucei B48 trypomastigotes after 70 hrs by Alamar Blue assay; assay type: functional, organism-based; conditions: B48, 70 h
[6] = tested on: Trypanosoma brucei brucei; assay: Trypanocidal activity against Trypanosoma brucei brucei s427 at >5 fold EC50 measured within 6 hrs by propidium iodide staining-based fluorimetric analysis; assay type: functional, organism-based
[7] = tested on: Trypanosoma brucei brucei; assay: Trypanocidal activity against wild type bloodstream form of Trypanosoma brucei brucei s427 trypomastigotes after 70 hrs by Alamar Blue assay; assay type: functional, organism-based; conditions: s427, 70 h
[8] = tested on: Trypanosoma brucei brucei; assay: Trypanocidal activity against Trypanosoma brucei brucei s427 at 2.5 uM measured over 2 hrs by propidium iodide staining-based fluorimetric analysis; assay type: functional, organism-based
[9] = tested on: Trypanosoma brucei brucei; assay: Trypanocidal activity against Trypanosoma brucei brucei s427 at 5 uM measured over 1 hr by propidium iodide staining-based fluorimetric analysis; assay type: functional, organism-based

SMILES | Ratio EC50 [1] | selectivity ratio [2] | CC50 at 30 h [3] [µM] | Activity [4] | EC50 [5] [nM] | Activity [6] | EC50 [7] [nM] | Activity [8] | Activity [9]
O=C(Nc1ccc(NC2=NCCN2)cc1)c1ccc(NC2=NCCN2)cc1 | 1.1 | > 240 | > 200 | Dose-dependent effect | 870 | Active | 830 |  | 
O=C(Nc1ccc(N=C2NCCN2)cc1)c1ccc(N=C2NCCN2)cc1F | 1.4 | > 420 | > 200 |  | 650 |  | 470 | Active | Active
O=C(Nc1ccc(N=C2NCCN2)cn1)c1ccc(N=C2NCCN2)cc1 | 3.1 | > 190 | > 200 |  | 3230 |  | 1040 |  | 
O=C(Nc1ccc(N=C2NCCN2)cc1)c1ccc(N=C2NCCN2)cc1Cl | 1.8 | > 150 | > 200 |  | 2440 |  | 1320 |  | 
O=C(Nc1ccc(N=C2NCCN2)cc1)c1ccc(N=C2NCCN2)c(Cl)c1 | 0.9 | > 200 | > 200 |  | 830 |  | 970 |  | 
O=C(Nc1ccc(N=C2NCCN2)c(F)c1)c1ccc(N=C2NCCN2)cc1 | 1.4 | > 340 | > 200 |  | 790 |  | 580 |  | 
O=C(Nc1ccc(N=C2NCCN2)c(Cl)c1)c1ccc(N=C2NCCN2)cc1 | 1.7 | > 900 | > 200 |  | 360 |  | 220 |  | Active
N=C(N)c1ccc(/N=N/Nc2ccc(C(=N)N)cc2)cc1 [DIMINAZENE] | 42 |  |  |  | 780 |  | 12 |  | 
N=C(N)c1ccc(OCCCCCOc2ccc(C(=N)N)cc2)cc1 [PENTAMIDINE] | 3349 |  |  |  | 550 |  | 0.11 |  | 
O=C(Nc1ccc(N=C2NCCN2)cc1Cl)c1ccc(N=C2NCCN2)cc1 | 1 | > 45 | > 200 |  | 4350 |  | 4220 |  | 
O=C(Nc1ccc(N=C2NCCN2)cc1)c1ccc(N=C2NCCN2)c(F)c1 | 1.3 | > 370 | > 200 |  | 690 |  | 530 |  | 
O=C(Nc1ccc(N=C2NCCN2)cc1F)c1ccc(N=C2NCCN2)cc1 | 1.4 | > 120 | > 200 |  | 2160 |  | 1580 |  | 
